# What was measured:
# [1] = system: rat spleen cell suspension stimulated with GPBP; test: Proliferation assay of spleen cells in response to GPBP, fed rats; format: cell-based; details: spleen cells of orally fed rats, 10-11 days after EAE induction (Figure 1)
# Experimental: Rats were immunized with 25 µg of GPBP emulsified 1:1 in CFA containing 4 mg/ml. H37Ra. The emulsion at a total volume of 0.1 ml. was injected into the two hindfoot pads.
# Rats were fed with 1 mg GPBP or glatiramer acetate dissolved in PBS by gastric intubation using a sterile feeding tube (Uno Plast, Denmark). Rats were fed 5 times (total dose of 5 mg) before disease induction at intervals of 2-3 days. EAE was induced two days after the last feeding. Control mice and rats were mock fed with PBS.
# Proliferation Assay - The proliferation response of spleen cells was tested 10-11 days after EAE induction as described above. Cells from 3 animals in each group were pooled and cultured in triplicate (5x10^5 mouse cells and 2x10^5 rat cells) in microtiter plates with various antigen concentrations (GPBP) in a final volume of 0.2ml. Microtiter plates contained RPMI 1640 (available from Sigma Biochemicals, St. Louis, Missouri) culture medium supplemented with 1% autologous serum. After 72 hr. of incubation, cells were pulsed with 1 µCi {^3H}-thymidine for 18 hr and then harvested onto filter papers and radioactivity was counted.
# [2] = system: EAE; test: Suppression of MSCH-induced EAE in mice by oral administration, dose response; format: in vivo, (SJL/JxBALB/c)F1 mice; details: days -7 to 6 (Figure 5)
# Experimental: Animals were examined daily from day 10 post induction for signs of disease. EAE was scored as follows: 0-no disease, 1-limp tail, 2-hind limb paralysis, 3-paralysis of all four limbs, 4-moribund condition, 5-death.
# Induction of EAE - (SJL/xBALB/c)F1 mice were injected in all four footpads with 2mg mouse spinal cord homogenated (MSCH) emulsified in 1:1 ratio in CFA containing 1 mg/ml H37Ra (Difco Lab, Detroit, Mich). Pertussis toxin (250 ng/mouse, Sigma) was twice injected intravenously, once immediately after and again 48 hours later.
# (SJL/JxBALB/c)F1 mice were fed 7 times with 0.1, 0.25 or 0.5 mg glatiramer acetate on days -7; -5; -3; 0; 2; 4 and 6 by gastric intubation. EAE was induced on day 0 by the injection of MSCH.
# [3] = system: CSF WBCs; test: Flow cytometry of cerebral spinal fluid (CSF) cells; format: in vivo, Rhesus Monkeys
# Experimental: 3 Rhesus monkeys were treated as follows: One monkey served as control and was fed with placebo capsules (containing 5mg glucose only). The second and third monkeys were fed with glatiramer acetate containing capsules at a dose of 1mg/feeding and 20mg/feeding, respectively. Animals were fed every other day for a total of 10 feedings: 5 times prior to disease induction (immunization on day 0) and then 5 times after immunization.
# Disease was induced on day 0 by an intradermal injection of 8mg bovine - MBP and 3 mg H37Ra M. tuberculosis in FCA into the hind footpads, total injected volume between 0.1 and 0.15 ml per footpad. The animals were followed for clinical manifestations of EAE, a variety of serum and CSF immunological markers and spinal cord and cranial MRI's.
# The Epics C flow cytometer was used to analyze both peripheral blood lymphocytes (PBL) and cerebral spinal fluid (CSF) collected from each monkey. The red blood cells were lysed and the remaining white blood cells (WBCs) were washed and stained using standard methods with appropriate reagents. Tables 3 and 4 below show the data from staining PBL and CSF WBCs from the three animals in this Example.
# [4] = system: MBP-specific T suppressor Inducer factor; test: Assay for MBP-specific T suppressor inducer factor in plasma (3C9 antibody); format: in vivo, Rhesus Monkeys; details: for MBP-specific T suppressor Inducer factor: plasma 1:20 dilution; for anti-Tsfi (3C9 Ab): plasma material bound to MBP (2.5µg)
# Excerpt: The analysis, for MBP-specific Tsfi in the plasma of the three monkeys in this Example are seen in Tables 5 and 6 below. None of the animals produced MBP-specific Tsfi until day +13 following EAE induction with MBP. […] Glatiramer acetate fed animals 18497 and 18498 consistently produced significant levels of Tsfi from day +13 until day +41 shortly before termination.
# Recombinant human TGF-beta reacted with the anti-TGF-beta, but not 3C9 antibody. Table 5: Assay for MBP-specific T suppressor Inducer factora
# [5] = animal 18498, 20mg/feeding, day +27
# [6] = animal 18498, 20mg/feeding, day +34
# [7] = animal 18497, 1mg/feeding then 20mg capsules after day 33, day +41
# [8] = animal 18497, 1mg/feeding, day +6
# [9] = animal 18497, 1mg/feeding, day +13
# [10] = animal 18497, 1mg/feeding, day +27
# [11] = animal 18498, 20mg/feeding, day +6
# [12] = animal 18498, 20mg/feeding, day +13
# [13] = animal 18498, 20mg/feeding, day +41
substance,measurement,setting,value
glatiramer acetate,proliferative responses to GPBP,[1],almost complete inhibition
same,suppression of EAE,[2]; mice fed 7 times 0.1 mg,most effective dose
same,suppression of EAE,[2]; mice fed 7 times 0.25 mg,less effective
same,suppression of EAE,[2]; mice fed 7 times 0.5 mg,completely inactive
same,Cells µl,"[3]; animal 18497, 1mg/feeding, day 0",few cells
same,Cells µl,"[3]; animal 18498, 20mg/feeding, day 0",too few cells
same,CD4+,[3]; [5],47
same,CD4+ CD45RA+,[3]; [5],8
same,Cells µl,[3]; [5],29.7
same,Cells µl,[3]; [6],too few cells
same,MBP-specific T suppressor Inducer factor,"[4]; animal 18497, 1mg/feeding then 20mg capsules after day 33, day +34",.66 OD at 405nm
same,MBP-specific T suppressor Inducer factor,[4]; [7],.76 OD at 405nm
same,MBP-specific T suppressor Inducer factor,[4]; [8],none
same,MBP-specific T suppressor Inducer factor,[4]; [9],.60 OD at 405nm
same,MBP-specific T suppressor Inducer factor,"[4]; animal 18497, 1mg/feeding, day +20",.61 OD at 405nm
same,MBP-specific T suppressor Inducer factor,[4]; [10],.56 OD at 405nm
same,MBP-specific T suppressor Inducer factor,"[4]; animal 18497, 1mg/feeding, day -1",none
same,MBP-specific T suppressor Inducer factor,"[4]; animal 18497, 1mg/feeding, day -13",none
same,MBP-specific T suppressor Inducer factor,[4]; [11],none
same,MBP-specific T suppressor Inducer factor,[4]; [12],.32 OD at 405nm
same,MBP-specific T suppressor Inducer factor,"[4]; animal 18498, 20mg/feeding, day +20",.32 OD at 405nm
same,MBP-specific T suppressor Inducer factor,[4]; [5],.42 OD at 405nm
same,MBP-specific T suppressor Inducer factor,[4]; [6],.40 OD at 405nm
same,MBP-specific T suppressor Inducer factor,[4]; [13],.40 OD at 405nm
same,MBP-specific T suppressor Inducer factor,"[4]; animal 18498, 20mg/feeding, day -1",none
same,MBP-specific T suppressor Inducer factor,"[4]; animal 18498, 20mg/feeding, day -13",none
same,anti-Tsfi (3C9 Ab),[4]; [7],0.76 OD405 nm
same,anti-Tsfi (3C9 Ab),[4]; [8],none
same,anti-Tsfi (3C9 Ab),[4]; [9],0.60 OD405 nm
same,anti-Tsfi (3C9 Ab),[4]; [10],0.56 OD405 nm
same,anti-Tsfi (3C9 Ab),[4]; [11],none
same,anti-Tsfi (3C9 Ab),[4]; [12],0.32 OD405 nm
same,anti-Tsfi (3C9 Ab),[4]; [5],0.42 OD405 nm
same,anti-Tsfi (3C9 Ab),[4]; [13],0.40 OD405 nm
